We go through four molecules from publication PMC6470589, “Contribution of Molecular Structure to Self-Assembling and Biological Properties of Bifunctional Lipid-Like 4-(N-Alkylpyridinium)-1,4-Dihydropyridines” (Pharmaceutics, 2019).

The nature of data set [1]: Self-assembling properties by dynamic light scattering (DLS). In kind it is physicochemical. The following applies: for PDI ± SD, 1 Set: freshly prepared samples; for Zeta-Pot ± SD: freshly prepared samples in water, 0.5 mg/mL (1–7), 0.25 mg/mL (8–10), 0.1 mg/mL (11); for PDI ± SD, 2 Set: two weeks after the first set, samples stored at r.t.; for Stability of nanoparticles: two weeks of storage at r.t., DLS. As for the experimental part:
Samples of compounds for dynamic light scattering (DLS) studies were prepared by thin-film hydration method in an aqueous solution at a concentration of 0.5 mg/mL for compounds 1–7, 0.25 mg/mL for compounds 8–10, and 0.1 mg/mL for compound 11. A corresponding amount of compounds was weighted in a round-bottom flask and dissolved in chloroform; then, the organic solvent was removed in vacuo, and the residue was dried in high vacuo for 1 h. An appropriate amount of deionised water was added to each flask for the preparation of stock solutions with the above-mentioned concentrations. Samples were prepared by sonication using a bath-type sonicator (Cole Parmer Ultrasonic Cleaner 8891CPX (Vernon Hills, IL, USA)). Samples were sonicated for 60 min at 50 °C.
The DLS measurements of the nanoparticles in an aqueous solution were carried out on a Zetasizer Nano ZSP (Malvern Panalytical Ltd., Malvern, UK) instrument with Malvern Instruments Ltd. Software 7.12, using the following specifications—medium: water; refractive index: 1.33; viscosity: 0.8872 cP; temperature: 25 °C; dielectric constant: 78.5; nanoparticles: liposomes; refractive index of materials: 1.60; detection angle: 173°; wavelength: 633 nm. Data were analysed using the multimodal number distribution software that was included with the instrument. The measurements were performed in triplicate in order to check their reproducibility.

The nature of data set [2]: MTT cytotoxicity assay on MH-22A tumor cells, 72 h. The following applies: mouse, MH-22A hepatocarcinoma cells, MTT, 72 h; ne = no effect in the tested concentration (up to 100 μg/mL); read-out: Cytotoxicity IC50, MH-22A. In kind it is cell-based, mouse. As for the experimental part: (§1) Tumor cell lines HT-1080 (human connective tissue fibrosarcoma) and MH-22A (mouse hepatocarcinoma) were used. All of the cells were obtained from the American Type Culture Collection ((ATCC,) Rockville, MD, USA). HT-1080 and MH-22A cells (4 × 10^4 cell/mL) were seeded in 96-well plates in Dulbecco’s modified Eagle’s medium (DMEM) containing 10% fetal bovine serum and cultivated for 72 h at 37 °C, 5% CO2 by exposure to different compounds concentrations (100 μg/mL, 25 μg/mL, 6.25 μg/mL, and 1.56 μg/mL). Cell viability was measured using 3-(4,5-dimethylthiazol-2-yl)-2,5-diphenyl-tetrazolium bromide (MTT) assay. In brief, after incubating with compounds, the culture medium was removed and fresh medium with 0.2 mg/mL MTT was added in each well of the plate. After incubation (3 h, 37 °C, 5% CO2), the medium with MTT was removed, and 200 μL of DMSO was added at once to each sample. The samples were tested at 540 nm on a Tecan multiplate reader Infinite1000 (Tecan Austria GmbH, Salzburg, Austria). The IC50 was calculated using the program Graph Pad Prism® 3.0.

Data set [3] deals with NIH 3T3 (Mouse Swiss Albino embryo fibroblast) cells. Kind of data set: Basal cytotoxicity test (neutral red uptake) with estimation of LD50 from IC50. Type of data set: cell-based. Particulars: category by estimated LD50 (mg/kg). As for the experimental part: The neutral red uptake (NRU) assay was performed according to the standard protocol of Stokes modified by NICEATM-ECVAM validation study. The NRU cytotoxicity assay procedure was based on the ability of viable cells to incorporate and bind neutral red, which is a supravital dye.
NIH 3T3 (Mouse Swiss Albino embryo fibroblast) cells (9000 cells/well) were placed into 96-well plates for 24 h in DMEM medium containing 5% fetal bovine serum (FBS). Then, they were exposed to the test compound over a range of seven concentrations (1000 μg/mL, 316 μg/mL, 100 μg/mL, 31 μg/mL, 10 μg/mL, 3.0 μg/mL, and 1.0 μg/mL) for 24 h. Untreated cells were used as a control. After 24 h, the medium was removed from all plates. Then, 250 μL of neutral red (NR) solution was added (0.05 mg/mL NR in DMEM 24 h pre-incubated at 37 °C and then filtered before use through a 0.22-µm syringe filter). Plates were incubated for 3 h, and then, cells were washed three times with phosphate buffered saline (PBS). The dye within viable cells was released by extraction with a mixture of acetic acid, ethanol, and water (1:50:49). The absorbance of neutral red was measured using a spectrophotometer multiplate reader Infinite M1000 (Tecan Austria GmbH, Salzburg, Austria) at 540 nm. The optical density (OD) was calculated using the formula: OD (treated cells) × 100/OD (control cells). The IC50 values were calculated using the program Graph Pad Prism® 3.0.
Data from the in vitro tests were used for estimating the starting dose for acute oral systemic toxicity tests in rodent. The in vivo starting dose is an estimated LD50 value that is calculated by inserting the in vitro IC50 value into a regression formula: log LD50 (mM/kg) = 0.439 log IC50 (mM) + 0.621 [29]. The value is recalculated to mg/kg, and compounds are evaluated in accordance with four toxicity categories: category 1: LD50 ≤ 5 mg/kg (highly toxic); category 2: 5 < LD50 ≤ 50 mg/kg (moderately toxic); category 3: 50 < LD50 ≤ 300 mg/kg (slightly toxic); category 4: 300 < LD50 ≤ 2000 mg/kg (practically non-toxic). Using an alternative in vitro method enables comparing the possible toxicity of new compounds and selecting compounds for further study, which will vastly reduce the number of animal experiments.

A short description of data set [4]: MTT cytotoxicity assay on HT-1080 tumor cells, 72 h. Type of data set: cell-based, human. The following applies: human, HT-1080 fibrosarcoma cells, MTT, 72 h; ne = no effect in the tested concentration (up to 100 μg/mL); read-out: Cytotoxicity IC50, HT-1080. As for the experimental part:
as §1

Another data set concerns human erythrocytes. The arrangement: method as in PMID 9713710. Particulars: cited from earlier work.
Data set [5] has as its system six prokaryotic (bacteria) and one eukaryotic (yeast) microorganism species. Put plainly: Toxicity screen, whole panel of microorganisms. In kind it is cell-based. Particulars: concentrations tested 10 to 0.001 mM. How it is done:
(§2) An estimation of the toxicity of 4-(N-alkylpyridinium)-1,4-DHP derivatives 3, 6, 7, and 9–11 was performed using six prokaryotic (bacteria) and one eukaryotic (yeast) microorganism species according to the procedure elaborated by Suppi et al.. The microorganisms used in the study and their origin were: Bacillus subtilis subsp. spizizenii (ATCC® 6633™*, Microbiologics®, St Cloud, MN, USA), Escherichia coli (ATCC® 8739, Microbiologics®), Klebsiella pneumoniae (Latvian Microorganisms strain collection, LMKK, strain number 535, Riga, Latvia), Micrococcus luteus (LMKK, No. 25), Pseudomonas aeruginosa (NCTC 12924, Biosciences Ltd., Dublin, Ireland), Proteus mirabilis (LMKK, No 590), and Saccharomyces cerevisiae, CEN.PK2 strain [32].
(§3) Bacteria and yeast cultures were cultivated until their exponential growth phase (optical density max 1); then, 100 µL of cell suspension was taken, washed in deionised (DI) water, and added to serially diluted samples of corresponding 4-(N-alkylpyridinium)-1,4-DHPs in DI water. All 1,4-DHPs were tested in five serially diluted concentrations (10 mM, 1 mM, 0.1 mM, 0.01 mM, and 0.001 mM). Test organisms were exposed to 1,4-DHP derivatives in DI water on 96-well microplates (Corning, Corning, NY, USA) at 28 °C for 24 h without shaking in the dark. Then, a 5 µL sample was taken from each well and spotted on yeast extract, bactopeptone, dextrose broth (YPD) (yeast extract 1%, bactopeptone 2%, glucose 2% and agar 2%) plates to test the growth of yeasts and lysogeny broth (LB) (yeast extract 0.5%, bactopeptone 1%, NaCl 0.5% and agar 2%) to test the growth for bacteria. Plates were left in 30 °C for 24 h, and assessed for microbial growth.
(§4) If there were no colonies after incubation with 1,4-DHPs in the last concentration of (0.001 mM), then their boundary concentration was set to 0.0001 mM or 0.1 µM.

Data set [6] concerns Bacillus subtilis subsp. spizizenii. Kind of data set: Toxicity screen, serial dilution-spot test.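 Also: last dilution that did not fully inhibit growth with colonies still present.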 Particulars: gram positive; 24 h exposure in DI water, 28 °C; 0.0001 = no colonies at 0.001 mM. In kind it is cell-based. As for the experimental part: as §2, §3, §4
Another data set concerns Micrococcus luteus. Kind of data set: Toxicity screen, serial dilution-spot test.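 Also: last dilution that did not fully inhibit growth with colonies still present.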 Type of data set: cell-based. Particulars: gram positive; 24 h exposure in DI water, 28 °C; 0.0001 = no colonies at 0.001 mM. How it is done: as §2, §3, §4
The next data set relates to Klebsiella pneumoniae. Put plainly: Toxicity screen, serial dilution-spot test.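 Also: last dilution that did not fully inhibit growth with colonies still present.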 In kind it is cell-based. The following applies: gram negative; 24 h exposure in DI water, 28 °C; 0.0001 = no colonies at 0.001 mM. How it is done:
as §2, §3, §4

The subject of data set [7] is Saccharomyces cerevisiae, CEN.PK2 strain. Put plainly: Toxicity screen, serial dilution-spot test.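 Also: last dilution that did not fully inhibit growth with colonies still present.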 Type of data set: cell-based. The following applies: yeast; 24 h exposure in DI water, 28 °C; 0.0001 = no colonies at 0.001 mM. As for the experimental part:
as §2, §3, §4

The subject of a further data set is Escherichia coli. Kind of data set: Toxicity screen, serial dilution-spot test.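 Also: last dilution that did not fully inhibit growth with colonies still present.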 In kind it is cell-based. Particulars: gram negative; 24 h exposure in DI water, 28 °C; 0.0001 = no colonies at 0.001 mM. How it is done: as §2, §3, §4
The subject of a further data set is Proteus mirabilis. Kind of data set: Toxicity screen, serial dilution-spot test.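 Also: last dilution that did not fully inhibit growth with colonies still present.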 The following applies: gram negative; 24 h exposure in DI water, 28 °C; 0.0001 = no colonies at 0.001 mM. In kind it is cell-based. How it is done: as §2, §3, §4
Another data set has as its system Pseudomonas aeruginosa. Kind of data set: Toxicity screen, serial dilution-spot test.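 Also: last dilution that did not fully inhibit growth with colonies still present.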 Type of data set: cell-based. Particulars: gram negative; 24 h exposure in DI water, 28 °C; 0.0001 = no colonies at 0.001 mM. How it is done: as §2, §3, §4
On the set-up of data set [8]: method as in PMID 9713710. Particulars: cited from earlier work.
Data set [9] in a line: Determination of critical aggregation concentration (CAC) by DLS. In kind it is physicochemical. Particulars: aqueous media. As for the experimental part: The critical aggregation concentrations (CAC) of 4-(N-alkylpyridinium)-1,4-DHP derivatives were determined in aqueous media using a Zetasizer Nano S90 (Malvern Panalytical Ltd., Malvern, UK) instrument with Malvern Instruments Ltd. Software according to procedure described by Topel et al. and modified by our group. Briefly, as stock solutions of tested compounds were used, samples were prepared for self-assembling experiments. All of the subsequent samples were prepared starting from the concentrated stock solution, which was subjected to a serial two-fold dilution each time with water. The intensity values of scattered light (kcps) as a function of concentration of amphiphiles were analysed. The scattering intensities detected for amphiphile concentrations below CAC have an approximately constant value corresponding to water. The intensity starts to show a linear increase with concentration at the CAC, since the amount of nanoparticles increases in the solution. The intersection of the best-fit lines drawn through the data points is the preliminary CAC value of the compounds.

Values joined by “and” are separate entries in the source; they are usually repeats but may differ in a detail not shown here. Identical values can stand only once. “Also recorded” adds a separate entry of the source.

As for `CCCCCC[n+]1cccc(C2C(C(=O)OCC)=C(C)NC(C)=C2C(=O)OCC)c1` [Compound 2], in data set [1], the “PDI ± SD, 1 Set” value was 0.50 and 0.50 ± 0.10; the “Zeta-Pot ± SD” value was −11.39 ± 1.85 mV; the “PDI ± SD, 2 Set” value amounted to 0.91 ± 0.10; the Stability of nanoparticles result is recorded as “weak stability”. For the same molecule, the IC50 at 72 h in data set [2] was determined as 67 ± 4 µM. Further, the “Toxicity category from estimated LD50” value in data set [3] is “non-toxic”. The IC50 at 72 h in data set [4] stood at 26 ± 2 µM.
Take `C#CCN1C(C)=C(C(=O)OCC)C(c2ccc[n+](CCCCCC)c2)C(C(=O)OCC)=C1C` [Compound 5]: in data set [1], the “PDI ± SD, 1 Set” value was 0.72 and 0.72 ± 0.32; the “Zeta-Pot ± SD” value is reported as −9.96 ± 0.72 mV; the “PDI ± SD, 2 Set” value is reported as 0.59 ± 0.01; the Stability of nanoparticles entry is recorded as “weak stability”. The IC50 at 72 h in [2] came to 16 ± 1 µM. In data set [3], the “Toxicity category from estimated LD50” value is recorded as “non-toxic”. The IC50 at 72 h in data set [4] is 5 ± 0.3 µM.
Turning to `C#CCOC(=O)C1=C(C)NC(C)=C(C(=O)OCC#C)C1c1ccc[n+](CCCCCC)c1` [Compound 8], in [1], the “PDI ± SD, 1 Set” value is 0.60 and 0.60 ± 0.06. The “PDI ± SD, 2 Set” value in data set [1] stood at 0.45 ± 0.05. The IC50 at 72 h was 80 ± 5 µM in data set [2] and 76 ± 8 µM in data set [4]. For the same molecule, in [3], the “Toxicity category from estimated LD50” value was “non-toxic”.
For the molecule `CCCCCCCCCCCCCCCC[n+]1cccc(C2C(C(=O)OCC)=C(C)NC(C)=C2C(=O)OCC)c1` [Compound 10], in data set [1], the “PDI ± SD, 1 Set” value was 0.10 and 0.10 ± 0.06; the “Zeta-Pot ± SD” value is on record as “+49.70 ± 7.94 mV”; the “PDI ± SD, 2 Set” value is 0.25 and 0.25 ± 0.05; the Stability of nanoparticles entry is on record as “stable after two weeks of storage; also recorded: confirmed the stability of nanoparticles”. Also, the “Hemolysis of human erythrocytes” value in the data set on human erythrocytes is “induced the hemolysis of human erythrocytes”. In addition, the “Effect on survival of microorganisms” value in data set [5] is reported as “toxic at various degrees”. Besides, in data set [6], the “Boundary concentration, B. subtilis” value was 0.0001 mM. For the same molecule, the “Boundary concentration, M. luteus” value with Micrococcus luteus is reported as 0.001 mM. Further, in the data set on Klebsiella pneumoniae, the “Boundary concentration, K. pneumoniae” value was 0.01 mM. In addition, in data set [7], the “Boundary concentration, S. cerevisiae” value was determined as 0.0001 mM. Besides, the “Boundary concentration, E. coli” value in the data set with Escherichia coli was determined as 0.01 mM. The “Boundary concentration, P. mirabilis” value with Proteus mirabilis worked out at 0.01 mM. Further, in the data set with Pseudomonas aeruginosa, the “Boundary concentration, P. aeruginosa” value turned out to be 10 mM. Besides, the “Release of calcein from DPPC liposomes” value in data set [8] is “remarkable release of calcein from DPPC liposomes”. The CAC in data set [9] is listed as 28.2 µM.
